Measurements reported in paper PMC6311682, “Design, Synthesis, and Biological Evaluation of 2-Nitroimidazopyrazin-one/-es with Antitubercular and Antiparasitic Activity” (Journal of Medicinal Chemistry, 2018).
Converted amounts (≈) assume the structure as drawn. Read-outs that look alike come from different tables or passages of the source.

How the values were obtained:
[1] = Broth microdilution MIC assay, ESKAPE pathogens; assay type: cell-based; conditions: S. aureus, E. coli, K. pneumoniae, A. baumannii, P. aeruginosa; read-out: antibacterial MIC ESKAPE
[2] = tested on: ESKAPE pathogens S. aureus (ATCC 43300), E. coli (ATCC 25922), K. pneumoniae (ATCC 700603), A. baumannii (ATCC 19606), P. aeruginosa (ATCC 27853); assay: Broth microdilution MIC assay, ESKAPE pathogens; assay type: cell-based
[3] = tested on: C. difficile (630, ATCC BAA-1382); assay: Broth microdilution MIC assay, C. difficile; assay type: cell-based, Clostridium difficile; conditions: 630 ATCC BAA-1382, median MIC; for MIC: Clostridioides difficile, ATCCBAA1382, read-out: antibacterial MIC C. difficile
[4] = Kinetic solubility determination by LC-UV; conditions: room temperature, 1% DMSO
[5] = tested on: L. donovani MHOM/IN/80/DD8 (ATCC50212); assay: L. donovani DD8 intracellular (THP-1) amastigote assay; assay type: cell-based; conditions: Leishmania donovani
[6] = tested on: E. histolytica (HM1:IMSS); assay: ATP-bioluminescence cell growth and survival assay, E. histolytica trophozoites; assay type: cell-based; conditions: Entamoeba histolytica
[7] = Mammalian cytotoxicity assay (resazurin), HEK293; conditions: human, HEK293 cells
[8] = Mammalian cytotoxicity assay (resazurin), HepG2; conditions: human, HepG2 cells
[9] = tested on: C. albicans (ATCC 90028) and C. neoformans (H99, ATCC 208821); assay: Broth microdilution MIC assay, fungi; assay type: cell-based; conditions: for MIC: Candida albicans, read-out: antifungal MIC
[10] = PBS, pH 7.4, Solubility µM (PBS), PBS pH 7.4, 24 h
[11] = water, Solubility µM (H2O), 24 h
[12] = read-out: antiparasitic IC50 L. donovani
[13] = read-out: antiparasitic pIC50 ± SE L. donovani (converted)
[14] = read-out: antiparasitic IC50 E. histolytica
[15] = read-out: antiparasitic pIC50 ± SE E. histolytica (converted)

| Compound | MIC [1] [µg/mL] | antibacterial MIC ESKAPE [2] [µg/mL] | antibacterial MIC C. difficile [3] [µg/mL] | MIC [3] [µg/mL] | solubility at 24 h [4, 10] [µM] | solubility at 24 h [4, 11] [µM] | IC50 [5, 12] [µM] | IC50 [5, 13] [µM] | IC50 [6, 14] [µM] | IC50 [6, 15] [µM] | CC50 at 24 h [7] [µM] | CC50 at 24 h [8] [µM] | MIC [9] [µg/mL] | antifungal MIC [9] [µg/mL] |
| --- | --- | --- | --- | --- | --- | --- | --- | --- | --- | --- | --- | --- | --- | --- |
| O=c1[nH]ccn2cc([N+](=O)[O-])nc12 [17a, 2-Nitroimidazo[1,2-a]pyrazin-8(7H)-one] | > 32 | >32 | >64 | > 64 | > 200 | > 200 | > 80 | > 79.4 | > 25 | > 25.1 |  |  |  |  |
| O=c1c2nc([N+](=O)[O-])cn2ccn1Cc1ccccc1OC(F)(F)F [17i, 2-Nitro-7-(2-(trifluoromethoxy)benzyl)imidazo[1,2-a]pyrazin-8(7H)-one] | > 32 | >32 |  |  | < 5 | < 5 | > 40 | > 39.8 | > 50 | > 50.1 |  |  |  |  |
| O=C(NCc1ccccc1)c1nc([N+](=O)[O-])c[nH]1 [16b, N-Benzyl-5-nitro-1H-imidazole-2-carboxamide] |  |  |  |  |  |  |  |  |  |  | > 100 | > 100 |  |  |
| CC(=O)OCCn1ccn2cc([N+](=O)[O-])nc2c1=O [17o, 2-(2-Nitro-8-oxoimidazo[1,2-a]pyrazin-7(8H)-yl)ethyl Acetate] | > 32 | >32 | >64 | > 64 |  |  | > 80 | > 79.4 | > 50 | > 50.1 |  |  |  |  |
| Cc1cn2cc([N+](=O)[O-])nc2c(OCc2ccccc2OC(F)(F)F)n1 [25m, 6-Methyl-2-nitro-8-((2-(trifluoromethoxy)benzyl)oxy)imidazo[1,2-a]pyrazine] | > 32 |  |  |  | < 5 | < 5 | > 40 | > 39.8 |  |  | > 100 | > 100 | > 32 |  |
| O=c1c2nc([N+](=O)[O-])cn2ccn1Cc1ccccn1 [17k, 2-Nitro-7-(pyridin-2-ylmethyl)imidazo[1,2-a]pyrazin-8(7H)-one, 1TFA] | > 32 | >32 | >64 | > 64 |  |  | > 80 | > 79.4 | > 50 | > 50.1 |  |  |  |  |
| Cc1nc(OCc2ccccc2OC(F)(F)F)c2nc([N+](=O)[O-])cn2c1C [26i, 5,6-Dimethyl-2-nitro-8-((2-(trifluoromethoxy)benzyl)oxy)imidazo[1,2-a]pyrazine] | > 32 | >32 |  |  | < 5 | < 5 |  |  |  |  | > 100 | > 100 | > 32 | >32 |
| Cc1ccc(Cn2cc([N+](=O)[O-])nc2C(N)=O)cc1 [28d] |  |  |  |  |  |  |  |  |  |  | > 100 | > 100 |  |  |
| Cc1c(C)n2cc([N+](=O)[O-])nc2c(=O)n1Cc1cccc(OC(F)(F)F)c1 [26f, 5,6-Dimethyl-2-nitro-7-(3-(trifluoromethoxy)benzyl)imidazo[1,2-a]pyrazin-8(7H)-one] | > 32 | >32 |  |  | 15.7 ± 0.404 (≈ 6 µg/mL) | 15.9 ± 1.55 (≈ 6.08 µg/mL) |  |  |  |  |  | 25.6 to 80 | > 32 | >32 |
| O=C(Cn1ccn2cc([N+](=O)[O-])nc2c1=O)N1CCOCC1 [17r, 7-(2-Morpholino-2-oxoethyl)-2-nitroimidazo[1,2-a]pyrazin-8(7H)-one] | > 32 | >32 | >64 | > 64 | 194 ± 0.526 (≈ 59.6 µg/mL) | 192 ± 1.51 (≈ 59 µg/mL) | > 80 | > 79.4 | > 50 | > 50.1 |  |  |  |  |
| O=c1c2nc([N+](=O)[O-])cn2ccn1Cc1ccc(F)cc1F [17j, 7-(2,4-Difluorobenzyl)-2-nitroimidazo[1,2-a]pyrazin-8(7H)-one] | > 32 | >32 |  |  | < 5 | < 5 | > 40 | > 39.8 | > 50 | > 50.1 |  |  |  |  |
| Cc1ccc(Cn2ccn3cc([N+](=O)[O-])nc3c2=O)cc1 [17d, 7-(4-Methylbenzyl)-2-nitroimidazo[1,2-a]pyrazin-8(7H)-one] | > 32 | >32 |  |  | < 5 | < 5 | > 80 | > 79.4 |  |  |  |  |  |  |
